The record followed here is patent publication US20230090255A1, “MAGL INHIBITOR, PREPARATION METHOD THEREFOR AND USE THEREOF” (LUNAN PHARMACEUTICAL GROUP CORPORATION, priority 2019, published 2023).

Data set [1] concerns reserpine-induced mice depression. Nature of the data set: Reserpine-induced mice depression. Format: in vivo, ICR mouse. Details: Awakening / Finger contact / Head touch / Fear / Autonomic activity / Eyelid closure / Upright: scale not given here. As to the method: • Species: ICR mouse • Microbiological level: SPF • Quantity and sex of the animals purchased: male: 75; female: 75 • Quantity and sex of the animals used: male: 75; female: 75 • Body weight: 13-18 g when accepted
Group design: there were 50 pieces for each batch of animals and 3 batches in total; each batch of animals were randomly divided into 5 groups; low, middle and high-dose groups of the samples for test, blank control group and model group; a sample for test was tested per batch.
3.1 Animals were administrated via subcutaneous injection per day with doses of 4, 8 and 16 mg/kg for 6 d in total. 2 h later after the final administration, each animal was subcutaneously injected with 4 mg/kg reserpine except the blank control group; afterwards, indicators, such as, awakening, finger contact, fear, head touch, autonomic activity, upright and eyelid closure were determined 2 h later.
Data statistics and analysis were completed via a computer by SPSS 17.0 software and office 2016, and data statistics was inspected by Kruskal-Wallis. If the Kruskal-Wallis inspection result is significant ((P<0.05), multiple comparison inspection is further performed by a Mann-Whitney U nonparametric test method.

The nature of data set [2]: Tissue distribution test in mice. The following applies: 16 mg/kg subcutaneous injection. Type of data set: in vivo. Details: content in the brain (tissue distribution): unit not given here.
[3] abbreviates: high dose 16 mg/kg sc 6 d, 2 h after reserpine 4 mg/kg.
Where [4] appears, read: low dose 4 mg/kg sc 6 d, 2 h after reserpine 4 mg/kg.
Where [5] appears, read: middle dose 8 mg/kg sc 6 d, 2 h after reserpine 4 mg/kg.

Marks after values point to notes of the source that are not given here.

With `O=C(Nc1cccc(Cl)c1)C1CCN(C(=O)c2cccc(O)c2)CC1` [MAGLZ-II-11], the “effect on reserpine-induced depression (conclusion)” value in data set [1] (4, 8 and 16 mg/kg sc 6 d) is “has a certain effect”. Moreover, in data set [1] (setting [3]), the Autonomic activity is recorded as 1.8±1.66* *, the Awakening is given as 3.2±1.33, the Eyelid closure is on record as 2±1.26 and the Fear was 0.2±0.60. In data set [1] (setting [3]), the Finger contact is 2±1.79, the Head touch came to 2.6±1.56 and the Upright is on record as 1±1.61* *. In addition, in data set [1] (setting [4]), the Autonomic activity was 0.8±1.60, the Awakening is recorded as 3±1.61, the Eyelid closure is 1.2±0.98 and the Fear worked out at 0±0. Further, in data set [1] (setting [4]), the Finger contact is 1.6±1.50 and the Head touch is 1±1.34. In data set [1] (setting [5]), this compound came in with an Autonomic activity of 0.8±1.60, an Awakening of 2.6±1.56, an Eyelid closure of 1.4±1.28 and a Fear of 0±0. In data set [1] (setting [5]), this compound came in with a Finger contact of 1.8±1.66 and a Head touch of 1.8±1.40. For the same compound, the “content in the brain, ranking of the test substances” value in data set [2] is listed as “lowest”. Further, the “content in the brain (tissue distribution)” value in data set [2] (1.0 h) came out at 0. Besides, the “content in the brain (tissue distribution)” value in data set [2] (2.0 h) is 1.6. In addition, the “content in the brain (tissue distribution)” value in data set [2] (5.0 h) turned out to be 1.3.
